Results on one compound are retold here after paper PMC10040441 (Nature biomedical engineering, 2023).

For assay [1], the target named is amyloid-β (Aβ42) aggregates (Homo sapiens, UniProt P05067). The assay can be described thus: fluorescence intensity binding assay with synthetic Aβ[…] aggregates.
Assay [2] concerns the target amyloid-β (Aβ40) aggregates (Homo sapiens, UniProt P05067). Described as above.

Sequence of amyloid-β (Aβ40) aggregates (P05067 672-711): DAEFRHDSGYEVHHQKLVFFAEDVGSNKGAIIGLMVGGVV
Sequence of amyloid-β (Aβ42) aggregates (P05067 672-713): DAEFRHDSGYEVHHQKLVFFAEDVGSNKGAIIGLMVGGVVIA

Regarding `CC1(C)C(/C=C/C2=C(c3ccc(CCC(=O)O)cc3)C(=C/C=C3/N(CCC[N+](C)(C)C)c4ccc(S(=O)(=O)O)cc4C3(C)C)/CCC2)=[N+](CCC[N+](C)(C)C)c2ccc(S(=O)(=O)O)cc21` [ZW800–1C], the values for the dissociation constant (Kd) in assay [1] and in assay [2] were 78.9 ± 12.3 nM and 43.7 ± 5.8 nM, respectively.
